This note sets out measurements from ChEMBL document CHEMBL4184246 (Bioorg Med Chem Lett, 2018).

Common to all, as to format: functional, cell-based
The test system of assay [1] is A549. The assay is described as follows: Growth inhibition of human A549 cells incubated for 6 days in absence of 400 U/ml IFNalpha by MTS assay. Particulars: A549, 144 h. In general terms: Tetrazolium dyes change colour on reduction, which living cells bring about.
Assay [2] concerns OVCAR-3. The assay is described as follows: Growth inhibition of human OVCAR3 cells incubated for 7 days in presence of 400 U/ml IFNalpha by MTS assay. Particulars: OVCAR-3, 168 h.
Assay [3] relates to OVCAR-3. The assay is described as follows: Growth inhibition of human OVCAR3 cells incubated for 7 days in absence of 400 U/ml IFNalpha by MTS assay. The conditions noted are these: OVCAR-3, 168 h.
For assay [4], the system named is A549. The experiment in a line: Induction of apoptosis in human A549 cells assessed as increase in PARP cleavage at 14 uM incubated for 4 days in absence of 200 U/ml IFNalpha by Western blot analysis.
For assay [5], the system named is A549. The experiment in a line: Growth inhibition of human A549 cells incubated for 6 days in presence of 400 U/ml IFNalpha by MTS assay. The conditions noted are these: A549, 144 h.
Assay [6] concerns A549. The assay is described as follows: Induction of apoptosis in human A549 cells assessed as increase in PARP cleavage at 13 uM incubated for 4 days in absence of 200 U/ml IFNalpha by Western blot analysis. (In western blotting, separated proteins are transferred to a membrane and probed.)
In assay [7] the test system is A549. The experiment in a line: Increase in DR5 protein expression in human A549 cells at 13 uM incubated for 4 days in presence of 200 U/ml IFNalpha by Western blot analysis.
For assay [8], the system named is A549. The assay is described as follows: Induction of apoptosis in human A549 cells assessed as increase in PARP cleavage at 13 uM incubated for 4 days in presence of 200 U/ml IFNalpha by Western blot analysis.
Assay [9] has as its system A549. The experiment in a line: Growth inhibition of human A549 cells at 13 uM incubated for 4 days in presence of 200 U/ml IFNalpha and in absence of 30 nM 14-3-3zeta siRNA by MTS assay.
In assay [10] the test system is A549. The experiment in a line: Growth inhibition of human A549 cells at 13 uM incubated for 4 days in presence of 200 U/ml IFNalpha and 30 nM 14-3-3zeta siRNA by MTS assay.
For assay [11], the system named is A549. The assay is described as follows: Increase in DR5 protein expression in human A549 cells at 13 uM incubated for 4 days in absence of 200 U/ml IFNalpha by Western blot analysis.
In assay [12] the test system is A549. The assay is described as follows: Increase in DR5 protein expression in human A549 cells at 14 uM incubated for 4 days in absence of 200 U/ml IFNalpha by Western blot analysis.
Assay [13] concerns A549. The experiment in a line: Increase in DR5 protein expression in human A549 cells at 14 uM incubated for 4 days in presence of 200 U/ml IFNalpha by Western blot analysis.
The test system of assay [14] is A549. The experiment in a line: Induction of apoptosis in human A549 cells assessed as increase in PARP cleavage at 14 uM incubated for 4 days in presence of 200 U/ml IFNalpha by Western blot analysis.
Assay [15] has as its system A549. The assay is described as follows: Growth inhibition of human A549 cells at 14 uM incubated for 4 days in presence of 200 U/ml IFNalpha and 30 nM 14-3-3zeta siRNA by MTS assay.
Assay [16] has as its system A549. The experiment in a line: Growth inhibition of human A549 cells at 14 uM incubated for 4 days in presence of 200 U/ml IFNalpha and in absence of 30 nM 14-3-3zeta siRNA by MTS assay.

The structures appear in SMILES notation. Calls of active or inactive are those of the source. No cut-off for these calls is given here.

Usually EC50 stands for the concentration that produces a half-maximal response. In the case of `COC[C@H]1CC[C@@H]2/C1=C\[C@@]1(C)CCC(C(C)C)=C1[C@@H](O[C@H]1O[C@@H]3COC(C)(C)O[C@H]3[C@H](O)[C@H]1O)[C@H](O)[C@@H]2C`, the half-maximal effective concentration (EC50) with A549 [1] is 33 µM; in the assay on OVCAR-3 [2] it was 18 µM; with OVCAR-3 [3], 29 µM; in the assay with A549 [5], 27 µM. Further, the outcome with A549 [4] was inactive.

Regarding `COC[C@H]1O[C@H](O[C@@H]2C3=C(C(C)C)CC[C@]3(C)/C=C3\[C@@H](CC[C@]3(O)COC)[C@@H](C)[C@H]2O)[C@H](O)[C@H]2O[C@H]3O[C@]21O[C@@]3(C)[C@@H]1CO1`, the result in the assay on A549 [6] was inactive. For the same compound, the result with A549 [7], in the assay on A549 [8] and with A549 [11] was Active. Besides, the EC50 in the assay with A549 [1] came out at 125 µM; with OVCAR-3 [2], 4.6 µM; in the assay on OVCAR-3 [3], 40 µM; in the assay on A549 [5], 17 µM. The “growth inhibition (GI)” value in the assay with A549 [9] was “Active”. Besides, the “growth inhibition (GI)” value in the assay on A549 [10] is “inactive”.

As for `COC[C@@]1(O)CC[C@@H]2/C1=C\[C@@]1(C)CCC(C(C)C)=C1[C@@H](O[C@H]1O[C@@H]3COC(C)(C)O[C@H]3[C@H](O)[C@H]1O)[C@H](O)[C@@H]2C`, the half-maximal effective concentration (EC50) in the assay on A549 [1] is more than 200 µM; in the assay on OVCAR-3 [2], 3.3 µM; with OVCAR-3 [3], more than 200 µM; with A549 [5], 11 µM. The outcome in the assay on A549 [12], with A549 [13] and with A549 [14] was Active. Moreover, the “growth inhibition (GI)” value in the assay with A549 [15] is “inactive”. For the same compound, the “growth inhibition (GI)” value with A549 [16] is “Active”.

As for `COC[C@@]1(OC)CC[C@@H]2/C1=C\[C@@]1(C)CCC(C(C)C)=C1[C@@H](O[C@H]1O[C@@H]3COC(C)(C)O[C@H]3[C@H](O)[C@H]1O)[C@H](O)[C@@H]2C`, the concentration giving a half-maximal response (EC50) with A549 [1] is 170 µM; with OVCAR-3 [2], more than 40 µM; in the assay on OVCAR-3 [3], 140 µM; in the assay on A549 [5] it was more than 40 µM.
